{"source": "patent US11679165B2", "about": "“Alkenyl substituted 2,5-piperazinediones, compositions, and uses thereof” (Massachusetts Institute of Technology, priority 2015, dated 2023)", "key": {"[1]": {"test_system": "human Erythropoietin (EPO)", "test": "Serum EPO after intravenous injection of EPO mRNA loaded LNPs (ELISA)", "assay_type": "in vivo, mice", "details": "for serum EPO concentration: 0.75 mg/kg intravenous, C57BL/6 mice, six hours (FIG. 2); for Average EPO: serum EPO, mean±SD (n=3), 6 hr after 0.75 mg/kg intravenous injection into mice, lipid formulated as EPO mRNA LNP", "description": "Compounds OF-00 through OF-03 were then formulated with human erythropoietin (EPO) mRNA, cholesterol, 1,2-dioleoyl-sn-glycero-3-phosphoethanolamine, and C14-PEG-2000 in accordance with previously optimized formulation parameters for mRNA delivery. See, e.g., A. Amirouche et al., Human molecular genetics 2013, 22, 3093-3111. […] Additionally, cKK-E12 is capable of silencing Factor VII expression in mice at siRNA doses as low as 0.002 mg/kg, and as such it represents a benchmark ionizable lipid in the field of nucleic acid delivery. The nanoparticle diameters, polydispersity indices, and encapsulation efficiencies for each of these five formulations is provided in Table 1. Serum EPO concentrations are reported as mean±SD (n=3) 6 hr after a 0.75 mg/kg dose intravenous injection into mice. Encapsulation efficiencies, LNP diameter, and PDI were collected as described above for each representative LNP formulation.\nEach resultant mRNA loaded LNP was then injected intravenously at a 0.75 mg/kg dose in C57BL/6 mice alongside phosphate buffered saline (PBS) as a negative control. At six hours, the serum EPO levels were quantified (FIG. 2). The PBS control imparted no significant EPO production in vivo, whereas positive control cKK-E12 LNPs promoted a serum EPO concentration of 7050 ng/mL. […] Additionally, OF-02 outperformed two other benchmark ionizable lipids from the siRNA delivery field, namely 503-013 (See, e.g, J. McClellan, M. C. King, Cell 2010, 141, 210-217; Whitehead et al., Nature Communications (2014) 5:4277) and C12-200 (K. T. Love et al., Proceedings of the National Academy of Sciences of the United States of America 2010, 107, 1864-1869). These two compounds represent the leads in their respective ionizable lipid classes of acrylate esters and amino alcohols, and promoted respective EPO concentrations of 2836 ng/mL and 7065 ng/mL at an identical dose.\nGeneral Lipid Nanoparticle (LNP) Synthesis. The organic phase was prepared by solubilizing with ethanol a mixture of ionizable lipid, 1,2-dioleoyl-sn-glycero-3-phosphoethanolamine (DOPE, Avanti), cholesterol (Sigma), and 1,2-dimyristoyl-sn-glycero-3-phosphoethanolamine-N-[methoxy(polyethyleneglycol)-2000] (ammonium salt) (C14-PEG 2000, Avanti) at a molar ratio of 35:16:46.5:2.5 and ionizable lipid:mRNA weight ratio of 10:1 in accordance with previously optimized formulation parameters for mRNA delivery. The aqueous phase was prepared in 10 mM citrate buffer (pH 3) with either EPO mRNA (human Erythropoietin mRNA, courtesy of Shire Pharmaceuticals, Cambridge, Mass.) or Luc mRNA (Firefly luciferase mRNA, Shire). The ethanol and aqueous phases were mixed at a 3:1 ratio in a microfluidic chip device (ref Delai's paper) using syringe pumps as previously described at a final mRNA concentration of 0.1 mg/mL. See, e.g., Chen et al., J. Am. Chem. Soc. (2012) 134:6948. Resultant LNPs were dialyzed against PBS in a 20,000 MWCO cassette at 4° C. for 2 hours.\n(§1) Animal Experiments. […] Luminescence was quantified using LivingImage software (Perkin Elmer)."}, "[2]": {"test": "mRNA encapsulation efficiency, modified Quant-iT RiboGreen RNA assay", "assay_type": "physicochemical", "details": "EPO mRNA LNP formulation of the ionizable lipid", "description": "(§2) General Lipid Nanoparticle (LNP) Synthesis. […] The ethanol and aqueous phases were mixed at a 3:1 ratio in a microfluidic chip device (ref […] paper) using syringe pumps as previously described at a final mRNA concentration of 0.1 mg/mL. See, e.g., Chen et al., J. Am. Chem. Soc. (2012) 134:6948. Resultant LNPs were dialyzed against PBS in a 20,000 MWCO cassette at 4° C. for 2 hours. LNP Characterization. To calculate the mRNA encapsulation efficiency, a modified Quant-iT RiboGreen RNA assay (Invitrogen) was used as previously described. See, […] al., J. Controlled Release (2005) 107:276-287. The diameter and polydispersity (PDI) of the LNPs were measured using dynamic light scattering (ZetaPALS, Brookhaven Instruments). LNP diameters are reported as the largest intensity mean peak average, which constituted >95% of the nanoparticles present in the sample."}, "[3]": {"test": "LNP diameter and polydispersity by dynamic light scattering", "assay_type": "physicochemical", "details": "for LNP Diameter: largest intensity mean peak average", "description": "as §2"}, "luciferase": {"test_system": "luciferase", "set-up": "species or system mice", "details": "mouse, in vivo", "description": "We were interested to determine if the efficacy differences observed between ckk-E12 and OF-02 LNPs were due to variations in biodistribution. mRNA coding for luciferase was independently formulated with both ckk-E12 and OF-02 in the same fashion as for EPO delivery, and mouse organs were harvested 24 hours post injection. […] Since more than 4000 human diseases are caused by liver genetic disorders such as hemophilias A and B, OF-02 LNPs represent a promising delivery vehicle for therapeutic mRNA delivery to the liver. See, e.g., J. McClellan et al., Cell 2010, 142, 353-355.\nas §1"}, "Factor VII": {"test_system": "Factor VII", "details": "mice, siRNA delivery; cited from earlier work"}, "mice": {"test_system": "mice", "test": "Mortality and weight change of mice treated with mRNA LNPs", "details": "all doses studied", "procedure": "FIG. 7 depicts the percent weight gain for cKK-E12 and OF-02 mRNA LNPs reported as mean SD (n=3) 24 hours after respective intravenous dose into mice.\nAnimal Experiments. […] LNPs were intraveneously injected in female C57BL/6 mice (Charles River Labs, 18-22 grams) via the tail vein. After six or 24 hours, blood was collected via the tail vein and serum was isolated by centrifugation in serum separation tubes. Serum EPO levels were quantified with an ELISA assay (Human Erythropoietin Quantikine IVD ELISA Kit, R&D Systems, Minneapolis, Md.). 24 hours after injection of Luc-mRNA LNPs, mice were injected intraperitoneally with 130 μL of D-luciferin (30 mg/mL in PBS). After fifteen minutes, mice were sacrificed and the organs were isolated (pancreas, spleen, liver, kidneys, lungs, heart, uterus and ovaries) and imaged with an IVIS imaging system (Perkin Elmer, Waltham, Mass.). Luminescence was quantified using LivingImage software (Perkin Elmer)."}}}
{"smiles": "CCCCCCCCCCCCCOC(=O)CCN(CCC(=O)OCCCCCCCCCCCCC)CCN(C)CCCN(C)CCN(CCC(=O)OCCCCCCCCCCCCC)CCC(=O)OCCCCCCCCCCCCC", "note": "[Compound 503-013]", "values": [{"measurement": "serum EPO concentration", "setting": "[1]", "result": 2836, "unit": "ng/mL"}]}
{"smiles": "CCCCCCCCCCC(O)CN(CCN1CCN(CCN(CC(O)CCCCCCCCCC)CC(O)CCCCCCCCCC)CC1)CCN(CC(O)CCCCCCCCCC)CC(O)CCCCCCCCCC", "note": "(stereo not drawn) [Compound C12-200]", "values": [{"measurement": "serum EPO concentration", "setting": "[1]", "result": 7065, "unit": "ng/mL"}]}
{"smiles": "CC/C=C\\C/C=C\\C/C=C\\CC(O)CN(CCCCC1NC(=O)C(CCCCN(CC(O)C/C=C\\C/C=C\\C/C=C\\CC)CC(O)C/C=C\\C/C=C\\C/C=C\\CC)NC1=O)CC(O)C/C=C\\C/C=C\\C/C=C\\CC", "note": "(stereo not drawn) [OF-03]", "values": [{"measurement": "Encapsulation Efficiency", "setting": "[2]", "result": 76, "unit": "%"}, {"measurement": "Average EPO", "setting": "[1]", "result": "140 ± 3", "unit": "ng/mL"}, {"measurement": "PDI", "setting": "[3]", "result": 0.239}, {"measurement": "LNP Diameter", "setting": "[3]", "result": 75, "unit": "nm"}]}
{"smiles": "CCCCCCCCCCC(O)CN(CCCCC1NC(=O)C(CCCCN(CC(O)CCCCCCCCCC)CC(O)CCCCCCCCCC)NC1=O)CC(O)CCCCCCCCCC", "note": "(stereo not drawn) [cKK-E12]", "values": [{"measurement": "Encapsulation Efficiency", "setting": "[2]", "result": 54, "unit": "%"}, {"measurement": "serum EPO concentration", "setting": "[1]", "result": 7050, "unit": "ng/mL"}, {"measurement": "dose response behaviour of EPO production", "setting": "[1]; 0.75 to 2.25 mg/kg EPO mRNA (FIG. 3B)", "result": "linear fashion with respect to dose"}, {"measurement": "Average EPO", "setting": "[1]", "result": "7100 ± 700", "unit": "ng/mL"}, {"measurement": "organ of luciferase mRNA translation (total luminescence per organ)", "setting": "luciferase", "result": "predominantly translated in the liver"}, {"measurement": "siRNA dose at which Factor VII expression is silenced", "setting": "Factor VII", "result": 2, "unit": "µg/kg"}, {"measurement": "PDI", "setting": "[3]", "result": 0.217}, {"measurement": "LNP Diameter", "setting": "[3]", "result": 83, "unit": "nm"}, {"measurement": "animal mortality", "setting": "mice", "result": "no animal mortality was observed"}]}
